Test results taken from PubChem BioAssay (NCI).
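How tested: cells in 96-well plates exposed to compound for 48 hours at five concentrations. TGI: total growth inhibition.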 Where a SMILES comes first, the peptide text is derived from it. The star is where a group is joined. Boc = CC(C)(C)OC(=O)*; OBn = c1ccc(CO*)cc1

Legend:
Assay in all cases: NCI-60 cell line screen, 48 h
[1] = test system: A549 NSCLC
[2] = test system: COLO 205 colon
[3] = test system: HCT-15 colon
[4] = test system: MDA-MB-231 breast
[5] = test system: MDA-MB-435
[6] = test system: PC-3 prostate
[7] = test system: RXF 393 renal
[8] = test system: SF-539 CNS
[9] = test system: SK-MEL-2 melanoma
[10] = test system: TK-10 renal

Row | Compound | TGI [1] [µM] | TGI [2] [µM] | TGI [3] [µM] | TGI [4] [µM] | TGI [5] [µM] | TGI [6] [µM] | TGI [7] [µM] | TGI [8] [µM] | TGI [9] [µM] | TGI [10] [µM]
1 | COC(=O)NNC(c1ccc(Cl)cc1)c1ccc(Cl)cc1 | 32.8 | 38 | 31.1 | 25.8 | > 100 | 30.5 | 23.7 | 39 | 26.6 | 33.6
2 | O=C1C=C2CCC[C@H]3OC(=O)C[C@@]23CC1 | > 100 | > 100 | > 100 | > 100 | > 100 | > 100 | > 100 | > 100 | > 100 | > 100
3 | CC12CCCCC1=[N+]([O-])C(C)(C)N2O (centres undefined) | > 100 | > 100 | > 100 | > 100 | > 100 | > 100 | > 100 | > 100 | > 100 | > 100
4 | Cc1ccc(S(=O)(=O)[C@@H](Cl)[C@H]2N=C(Cl)NN=C2c2ccccc2)cc1 | > 100 | 75 | 54.5 | 46.6 | 51.4 | 39.5 | 37.3 | 61.1 | 34.8 | > 100
5 | Cc1nnc2n(c1=O)CCN2C | > 100 | > 100 | > 100 | > 100 | > 100 | > 100 | > 100 | > 100 | > 100 | > 100
6 | CCOc1ccc(N=NC2C(=O)N(C(=O)CC(=O)Nc3ccccc3)N=C2C)cc1 (centres undefined) | > 100 | > 100 | > 100 | > 100 | 23.8 | > 100 | > 100 | > 100 | > 100 | > 100
7 | Cc1cccc2nc3c(=O)[nH]c(=O)nc-3n(C)c12 | > 100 | > 100 | > 100 | > 100 | 34.1 | > 100 | > 100 | > 100 | > 100 | > 100
8 | Nc1nccc(NCC2(CO)CCC2)n1 | > 100 | > 100 | > 100 | > 100 | > 100 | > 100 | > 100 | > 100 | > 100 | 77.4
9 | CC(C)(O)C1CC[C@]2(C)[C@H]3CC[C@@H]4[C@@]5(C)CCCC(C)(C)[C@@H]5CC[C@@]4(C)[C@]3(C)CC[C@@H]12 (some centres undefined) | > 100 | > 100 | > 100 | > 100 | > 100 | > 100 | > 100 | > 100 | > 100 | > 100
10 | Cc1ccc(-n2cc(-c3ccc(Cl)cc3)c3c(NN)ncnc32)cc1 | 15.3 | 11.2 | 26.1 | > 100 | 29.4 | 56.1 | 7.31 | 11.3 | 47.1 | > 100
11 | NC(Cc1c[nH]c2cc([N+](=O)[O-])ccc12)C(=O)O (centres undefined) | > 100 | > 100 | > 100 | > 100 | > 100 | > 100 | > 100 | > 100 | > 100 | > 100
12 | CCOC(=O)NNC(=O)NCc1ccccc1CNC(=O)NNC(=O)OCC | > 100 | > 100 | > 100 | > 100 | > 100 | > 100 | > 100 | > 100 | > 100 | > 100
13 | CC(C)CC(NC(=O)OC(C)(C)C)C(=O)NC(CC(=O)OCc1ccccc1)C(=O)OCc1ccccc1 (stereo not drawn) (Boc-Leu-Asp(OBn)-OBn; configuration not given here) | > 100 | > 100 |  | > 100 | > 100 | 84.8 | 90.5 | 96.7 | > 100 | 60.9
14 | Cc1ccc(NC2=NCCO2)c2c1CCC2 | > 100 | 83.6 | > 100 | 69.4 | 46.2 | > 100 | > 100 | 56 | 48.9 | > 100
15 | COC(=O)c1c(CC(Cc2ccc3c(c2)CCCC3)C(=O)OC)ccc2c1CCCC2 (centres undefined) | > 100 | > 100 | > 100 | > 100 | > 100 | > 100 | > 100 | > 100 | > 100 | > 100
16 | C[N+](C)(C)C=Nc1cccc2c1CCCC2 | > 100 | > 100 | > 100 | > 100 | > 100 | > 100 | > 100 | > 100 | > 100 | > 100
17 | CS[C@]12[C@@H]3C(=O)N(C)C(=O)[C@@H]3[C@](C)(C(=O)N1C)C(=O)N2c1ccccc1 | > 100 | > 100 | > 100 | > 100 | > 100 | > 100 | > 100 | > 100 | > 100 | > 100
